# Test results as given in patent US7615361B2, “Toxicity screening methods” (Ceetox, Inc., priority 2006, dated 2009).
# Legend:
# rat cardiomyocytes = test: Intracellular total glutathione (GSH); type: cell-based; settings: rat cardiomyocytes, after 3 hr
# Outline: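 Intracellular total glutathione serves as an oxidative-stress marker in neonatal rat cardiomyocytes exposed to compound in vitro. Cells were harvested for biochemical analysis, and values are means of each exposure group (n=3-7).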
# [1] = tested on: H4IIE tumor cells, NRK cells, rat primary hepatocytes; test: Anti-tumor screen in three rat cell types; type: cell-based
# Source text: In the Anti-tumor screen of the present invention, at least three different cell types are utilized: (1) tumor derived cells, (2) proliferating cells from normal tissue, and (3) non-proliferating cells from normal tissue. The evaluation of anti-tumor agents in multiple cell types provides information on mechanism-based toxicity versus efficacy.
# The anti-tumor agent can be evaluated in a toxicity screen of key biochemical functions (as described in detail herein above), with emphasis placed on cell proliferation assays as well as biochemical function and cell viability. Comparisons can then be made to quantitative markers in the concentration response curves constructed with the toxicity data.
# It is hypothesized to act through mitochondrial toxicity as well as apoptosis.
# [2] = tested on: reactive oxygen species (ROS); test: DCFDA fluorescence; type: cell-based, rat; settings: 5 μM
# Procedure: The production of reactive oxygen species (ROS) can be measured using 2′-7′dichloro-dihydrofluorescein diacetate (DCFDA).
# Dihydro-2′,7′-dichloroflorescin-diacetate (DCFDA) for Monitoring Peroxide Formation: DCFDA (Sigma C-6827) was dissolved in DMSO at a concentration of 205 mM. The stock was diluted to 50 μM in phosphate buffered saline. Cells were preloaded with DCFDA for 1 hour prior to dosing with test compounds. Positive control wells were dosed with freshly prepared 300 μM t-Butyl hydroperoxide (tBHP). After compound exposure, the plates were washed with phosphate buffered saline and read at 485/530 in a Packard Fusion plate reader.
# Dihydro-2′,7′-dichloroflorescin-diacetate (DCFDA) for Monitoring Peroxide Formation: Plates were read at 485/530 in a Packard Fusion plate reader or equivalent.
# iNOS = test: bDNA analysis of mRNA in rat cardiomyocytes; type: cell-based
# Procedure: Nitric oxide was also evaluated since it has been implicated in many pathways related to oxidative stress, apoptosis, and cardiac hypertrophy. More specifically, adriamycin induced mitochondrial toxicity is reduced in the presence of increased iNOS. Thus, a compensatory response to mitochondrial toxicity may be an increase in iNOS (Chaiswing et al., 2005). In this example, rat cardiomyocytes exposed to adriamycin induced iNOS expression more than 15-fold (FIG. 27C).
# bDNA Sample Collection and Storage: After 48 hr compound exposure in 96-well plates, 50 μL of stock lysis mixture was added to each 100 μL well. Plates were mixed using a DPC 5 Micromix plate shaker at 37° C. for 15-30 minutes to ensure complete lysis of cells. Cell lysis was confirmed using a Nikon inverted microscope. Plates were stored at −80° C. until further analysis.
# bDNA Analysis (Day 1): All solutions were prepared fresh on the day of analysis. Quantigene® bDNA kit components were brought to room temperature prior to use. […]
# Substrate working solution was prepared by adding 30 μL of 10% Lithium Lauryl Sulfate to 10 mL Substrate solution per plate. […] Upon completion of last incubation, luminescence was measured using a Packard Fusion or equivalent plate reader with plate heater set to 46° C. Data were collected as relative light units (RLU) and expressed as fold change relative to controls after background subtract.
# H4IIE cells = test: MTT reduction; type: cell-based, rat; settings: rat, 24 h
# Outline: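 Rat hepatoma H4IIE cells exposed to compound prepared in complete culture medium, with tetrazolium dye (MTT) reduction used as a mitochondrial-function read-out of cytotoxicity. Values are means of each exposure group (n=3-7).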
# NRK cells = test: Caspase 3 activity (apoptosis); type: cell-based, rat
# Procedure: Caspase 3 Procedure: Caspase 3 activity was determined using a caspase substrate (DEVD, Asp-Glu-Val-Asp) labeled with a fluorescent molecule, 7-Amino4-methylcoumarin (AMC). Caspase 3 cleaves the tetrapeptide between D and AMC, thus releasing the fluorogenic […] AMC. Following the test article exposure to cells in 96-well plates, medium was aspirated from plates and PBS added to each well. Plates were stored at −80° C. to lyse cells and store samples until further analysis. On the day of analysis, plates were removed from freezer and thawed. Caspase buffer with fluorescent substrate was added to each well and incubated at room temperature for 1 hr. AMC release was measured in a spectrofluorometer at an excitation wavelength of 360 nm and an emission wavelength of 460 nm. Values are expressed as relative fluorescent units (RFU).
# Caspase Activity: After sample plates were completely thawed, the caspase substrate buffer mix was added to each plate. Plates were incubated at room temperature for 1hr, shielded from light. Plates were read using a in a spectrofluorometer at an excitation wavelength of 360 nm and an emission wavelength of 460 nm. Values were expressed as relative fluorescent units (RFU).
# The key to the maximal response data can be found below Table 2.
# The third experiment was done to evaluate the specificity and selectivity of the test compound in another non-tumor cell that was derived from normal rat kidney tissue.
SMILES,cellular GSH depleted (rat cardiomyocytes),sensitivity of cell types in the anti-tumor screen [1],increase in DCFDA (ROS related) fluorescence [2],iNOS expression induction (iNOS),CC50 (H4IIE cells),MTT affected less in liver cells compared to myocytes (H4IIE cells),Caspase 3 Activity (Index/Dose): Dose (NRK cells; 6 HR),Caspase 3 Activity (Index/Dose): Index (NRK cells; 6 HR),Caspase 3 Activity (Index/Dose): Dose (NRK cells; 24 HR),Caspase 3 Activity (Index/Dose): Index (NRK cells; 24 HR)
"COc1cccc2c1C(=O)c1c(O)c3c(c(O)c1C2=O)C[C@@](O)(C(=O)CO)C[C@@H]3O[C@H]1C[C@H](N)[C@H](O)[C@H](C)O1 [ADRIAMYCIN, Adriamycin]",More than 90%,toxic to all of the cells tested,4 fold,more than 15 fold,26 µM,approximately 13 fold,,,,
"CC[C@@]1(O)C(=O)OCc2c1cc1n(c2=O)Cc2cc3ccccc3nc2-1 [CAMPTOTHECIN, Camptothecin]",,,,,,,100 µM,3 (40-60 = 3),300 µM,10 (180-200 = 10)
